# Source: the kinase profiling compilation of Christmann-Franck et al. (2016)
# Experiments:
# Conditions in all cases: compound 10.0 µM
# ADCK3 (human) = ADCK3 (human) (UniProt Q8NI60)
# ALK (human) = ALK (human) (UniProt Q9UM73)
# CAMK2D (human) = CAMK2D (human) (UniProt Q13557)
# CDK18 (human) = CDK18 (human) (UniProt Q07002)
# CHEK1 (human) = CHEK1 (human) (UniProt O14757)
# CLK3 (human) = CLK3 (human) (UniProt P49761)
# CSNK1A1 (human) = CSNK1A1 (human) (UniProt P48729)
# CSNK1G2 (human) = CSNK1G2 (human) (UniProt P78368)
# CSNK2A1 (human) = CSNK2A1 (human) (UniProt P68400)
# DCLK3 (human) = DCLK3 (human) (UniProt Q9C098)
# EPHA3 (human) = EPHA3 (human) (UniProt P29320)
# ERN1 (human) = ERN1 (human) (UniProt O75460)
# FGFR2 (human) = FGFR2 (human) (UniProt P21802)
# FLT1 (human) = FLT1 (human) (UniProt P17948)
# [1] = test system: FLT3 (human), P36888 [R834Q]
# FLT4 (human) = FLT4 (human) (UniProt P35916)
# FYN (human) = FYN (human) (UniProt P06241)
# HIPK4 (human) = HIPK4 (human) (UniProt Q8NE63)
# IGF1R (human) = IGF1R (human) (UniProt P08069)
# [2] = target: JAK1 JH1 catalytic (human) (UniProt P23458)
# [3] = test system: KIT (human), P10721 [V559D/T670I]
# LATS1 (human) = LATS1 (human) (UniProt O95835)
# LIMK2 (human) = LIMK2 (human) (UniProt P53671)
# MAP2K2 (human) = MAP2K2 (human) (UniProt P36507)
# MAP2K7 (human) = MAP2K7 (human) (UniProt O14733)
# MAP3K11 (human) = MAP3K11 (human) (UniProt Q16584)
# MAPK12 (human) = MAPK12 (human) (UniProt P53778)
# MARK2 (human) = MARK2 (human) (UniProt Q7KZI7)
# MTOR (human) = MTOR (human) (UniProt P42345)
# MYLK4 (human) = MYLK4 (human) (UniProt Q86YV6)
# NEK3 (human) = NEK3 (human) (UniProt P51956)
# NEK4 (human) = NEK4 (human) (UniProt P51957)
# PDPK1 (human) = PDPK1 (human) (UniProt O15530)
# PIM1 (human) = PIM1 (human) (UniProt P11309)
# PLK3 (human) = PLK3 (human) (UniProt Q9H4B4)
# ROCK2 (human) = ROCK2 (human) (UniProt O75116)
# RPS6KA6 KD2 (human) = RPS6KA6 KD2 (human) (UniProt Q9UK32)
# STK11 (human) = STK11 (human) (UniProt Q15831)
# STK32C (human) = STK32C (human) (UniProt Q86UX6)
# STK39 (human) = STK39 (human) (UniProt Q9UEW8)
# TEK (human) = TEK (human) (UniProt Q02763)
# Sequence of TEK (human) (Q02763 whole entry, looked up): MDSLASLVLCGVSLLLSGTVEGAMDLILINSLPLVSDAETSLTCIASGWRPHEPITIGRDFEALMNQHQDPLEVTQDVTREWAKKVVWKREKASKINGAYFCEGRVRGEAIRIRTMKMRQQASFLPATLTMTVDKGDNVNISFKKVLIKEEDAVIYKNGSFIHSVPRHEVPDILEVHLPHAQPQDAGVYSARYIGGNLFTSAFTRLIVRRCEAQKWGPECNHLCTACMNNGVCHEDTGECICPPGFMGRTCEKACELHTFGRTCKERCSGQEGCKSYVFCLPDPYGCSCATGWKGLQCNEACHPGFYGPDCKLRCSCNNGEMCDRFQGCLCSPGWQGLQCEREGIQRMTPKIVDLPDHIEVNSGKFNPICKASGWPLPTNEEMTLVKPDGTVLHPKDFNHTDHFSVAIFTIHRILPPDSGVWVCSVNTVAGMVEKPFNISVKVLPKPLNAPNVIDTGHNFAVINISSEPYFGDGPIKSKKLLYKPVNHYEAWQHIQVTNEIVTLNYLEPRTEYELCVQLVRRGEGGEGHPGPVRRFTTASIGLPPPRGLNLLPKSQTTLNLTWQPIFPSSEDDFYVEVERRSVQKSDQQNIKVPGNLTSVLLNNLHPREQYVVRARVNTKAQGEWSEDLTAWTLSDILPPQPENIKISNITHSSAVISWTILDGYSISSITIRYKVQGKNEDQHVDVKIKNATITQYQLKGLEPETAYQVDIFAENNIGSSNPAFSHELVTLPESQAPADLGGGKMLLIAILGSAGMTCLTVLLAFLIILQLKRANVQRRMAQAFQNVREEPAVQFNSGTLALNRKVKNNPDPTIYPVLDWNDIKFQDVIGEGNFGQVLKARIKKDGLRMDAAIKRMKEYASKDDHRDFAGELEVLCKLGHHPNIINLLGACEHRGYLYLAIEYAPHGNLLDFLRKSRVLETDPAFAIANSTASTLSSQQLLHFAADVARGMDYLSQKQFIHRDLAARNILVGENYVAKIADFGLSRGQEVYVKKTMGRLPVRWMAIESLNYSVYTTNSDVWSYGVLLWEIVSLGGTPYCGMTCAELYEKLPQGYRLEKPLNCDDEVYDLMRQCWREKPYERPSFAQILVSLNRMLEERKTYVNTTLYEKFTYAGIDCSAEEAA
# Sequence of FGFR2 (human) (P21802 whole entry, looked up): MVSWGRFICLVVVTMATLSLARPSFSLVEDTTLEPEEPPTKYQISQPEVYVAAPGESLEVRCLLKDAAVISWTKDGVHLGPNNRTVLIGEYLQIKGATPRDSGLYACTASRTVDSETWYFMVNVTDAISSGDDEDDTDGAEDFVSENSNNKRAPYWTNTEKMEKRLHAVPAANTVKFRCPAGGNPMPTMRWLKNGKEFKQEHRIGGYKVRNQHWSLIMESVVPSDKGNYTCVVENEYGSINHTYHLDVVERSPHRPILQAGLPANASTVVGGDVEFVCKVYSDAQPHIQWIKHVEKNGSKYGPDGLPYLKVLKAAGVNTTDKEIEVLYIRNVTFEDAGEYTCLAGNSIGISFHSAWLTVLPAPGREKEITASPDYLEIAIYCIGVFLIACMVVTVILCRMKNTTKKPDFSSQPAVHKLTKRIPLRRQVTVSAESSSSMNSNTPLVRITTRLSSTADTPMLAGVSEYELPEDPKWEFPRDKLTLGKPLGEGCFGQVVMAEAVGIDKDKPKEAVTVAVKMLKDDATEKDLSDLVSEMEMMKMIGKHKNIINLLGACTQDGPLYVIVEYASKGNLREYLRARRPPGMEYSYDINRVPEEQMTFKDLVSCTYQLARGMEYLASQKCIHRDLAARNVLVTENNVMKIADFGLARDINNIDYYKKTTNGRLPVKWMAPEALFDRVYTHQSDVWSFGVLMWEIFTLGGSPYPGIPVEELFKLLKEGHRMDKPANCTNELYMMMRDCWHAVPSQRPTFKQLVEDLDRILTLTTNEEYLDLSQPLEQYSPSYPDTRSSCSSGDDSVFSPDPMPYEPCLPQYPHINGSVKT
# Sequence of MAPK12 (human) (P53778 whole entry, looked up): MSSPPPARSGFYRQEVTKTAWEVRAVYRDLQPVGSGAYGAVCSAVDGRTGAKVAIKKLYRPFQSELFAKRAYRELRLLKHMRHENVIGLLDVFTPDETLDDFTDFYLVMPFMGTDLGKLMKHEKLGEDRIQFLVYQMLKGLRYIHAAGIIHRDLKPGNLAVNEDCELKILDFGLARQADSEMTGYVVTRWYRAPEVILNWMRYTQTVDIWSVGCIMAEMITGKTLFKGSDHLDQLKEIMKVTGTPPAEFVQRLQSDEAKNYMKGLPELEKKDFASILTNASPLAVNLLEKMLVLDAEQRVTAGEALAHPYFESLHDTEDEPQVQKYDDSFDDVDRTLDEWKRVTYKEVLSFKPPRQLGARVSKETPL
# Sequence of MYLK4 (human) (Q86YV6 whole entry, looked up): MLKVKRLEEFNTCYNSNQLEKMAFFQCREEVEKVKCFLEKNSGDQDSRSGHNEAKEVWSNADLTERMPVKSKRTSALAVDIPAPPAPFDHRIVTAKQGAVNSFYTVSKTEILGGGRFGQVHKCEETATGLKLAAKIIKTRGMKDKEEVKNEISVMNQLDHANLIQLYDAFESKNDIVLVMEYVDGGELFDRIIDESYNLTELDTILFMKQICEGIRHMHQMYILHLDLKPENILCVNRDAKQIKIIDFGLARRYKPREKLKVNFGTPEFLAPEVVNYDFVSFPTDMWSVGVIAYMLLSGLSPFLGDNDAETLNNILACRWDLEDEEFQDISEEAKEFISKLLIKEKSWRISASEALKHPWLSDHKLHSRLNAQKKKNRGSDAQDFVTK
# Sequence of FLT4 (human) (P35916 whole entry, looked up): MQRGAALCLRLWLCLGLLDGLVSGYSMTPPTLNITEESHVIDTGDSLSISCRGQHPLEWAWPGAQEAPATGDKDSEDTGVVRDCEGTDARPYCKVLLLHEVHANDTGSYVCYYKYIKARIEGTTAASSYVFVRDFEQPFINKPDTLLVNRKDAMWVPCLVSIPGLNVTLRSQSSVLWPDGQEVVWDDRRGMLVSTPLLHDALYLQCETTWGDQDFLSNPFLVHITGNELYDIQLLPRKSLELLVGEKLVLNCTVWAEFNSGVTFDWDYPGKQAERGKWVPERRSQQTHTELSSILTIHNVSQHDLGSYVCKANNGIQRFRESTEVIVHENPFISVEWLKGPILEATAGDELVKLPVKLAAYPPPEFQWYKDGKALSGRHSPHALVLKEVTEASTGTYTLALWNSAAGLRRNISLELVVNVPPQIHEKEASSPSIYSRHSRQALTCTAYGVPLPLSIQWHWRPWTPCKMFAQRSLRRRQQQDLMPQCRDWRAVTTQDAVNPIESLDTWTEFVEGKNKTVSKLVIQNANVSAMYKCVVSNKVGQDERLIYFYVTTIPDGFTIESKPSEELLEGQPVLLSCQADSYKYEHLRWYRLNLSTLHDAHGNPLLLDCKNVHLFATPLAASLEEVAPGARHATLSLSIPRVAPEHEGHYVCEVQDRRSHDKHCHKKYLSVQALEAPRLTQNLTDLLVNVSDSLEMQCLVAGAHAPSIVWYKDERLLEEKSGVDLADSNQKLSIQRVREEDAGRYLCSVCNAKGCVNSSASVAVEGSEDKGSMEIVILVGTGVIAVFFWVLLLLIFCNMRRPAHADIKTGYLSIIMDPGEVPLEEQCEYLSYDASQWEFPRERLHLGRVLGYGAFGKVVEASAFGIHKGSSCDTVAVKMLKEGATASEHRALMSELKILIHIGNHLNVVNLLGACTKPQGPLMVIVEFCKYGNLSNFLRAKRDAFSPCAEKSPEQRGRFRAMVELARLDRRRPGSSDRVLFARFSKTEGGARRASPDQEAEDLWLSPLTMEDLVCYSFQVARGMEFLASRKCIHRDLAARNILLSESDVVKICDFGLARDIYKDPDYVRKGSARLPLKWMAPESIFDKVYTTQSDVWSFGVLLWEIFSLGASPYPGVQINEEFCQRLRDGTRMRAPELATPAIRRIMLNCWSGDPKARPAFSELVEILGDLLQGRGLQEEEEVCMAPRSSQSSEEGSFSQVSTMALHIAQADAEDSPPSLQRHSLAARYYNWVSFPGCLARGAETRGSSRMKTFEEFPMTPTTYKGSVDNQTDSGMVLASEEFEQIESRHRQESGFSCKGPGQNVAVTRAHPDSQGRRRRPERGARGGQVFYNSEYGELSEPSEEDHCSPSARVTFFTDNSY
# Sequence of DCLK3 (human) (Q9C098 whole entry, looked up): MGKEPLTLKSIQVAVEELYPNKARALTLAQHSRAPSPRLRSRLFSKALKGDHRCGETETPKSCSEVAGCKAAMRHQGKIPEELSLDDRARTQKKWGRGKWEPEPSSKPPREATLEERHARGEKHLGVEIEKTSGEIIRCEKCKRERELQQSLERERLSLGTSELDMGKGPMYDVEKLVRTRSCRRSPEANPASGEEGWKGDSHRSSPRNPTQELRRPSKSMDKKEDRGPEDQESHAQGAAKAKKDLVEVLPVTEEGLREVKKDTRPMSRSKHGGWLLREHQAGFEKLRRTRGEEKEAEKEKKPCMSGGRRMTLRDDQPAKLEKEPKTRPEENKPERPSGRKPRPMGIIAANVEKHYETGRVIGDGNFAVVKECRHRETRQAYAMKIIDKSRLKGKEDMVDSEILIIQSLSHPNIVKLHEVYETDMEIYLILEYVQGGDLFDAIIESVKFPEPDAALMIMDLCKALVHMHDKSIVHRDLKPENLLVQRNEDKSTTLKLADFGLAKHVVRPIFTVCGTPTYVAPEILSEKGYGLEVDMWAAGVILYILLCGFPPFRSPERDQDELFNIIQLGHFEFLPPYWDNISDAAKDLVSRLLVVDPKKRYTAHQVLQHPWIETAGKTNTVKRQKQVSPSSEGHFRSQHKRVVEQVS
# Sequence of PIM1 (human) (P11309 whole entry, looked up): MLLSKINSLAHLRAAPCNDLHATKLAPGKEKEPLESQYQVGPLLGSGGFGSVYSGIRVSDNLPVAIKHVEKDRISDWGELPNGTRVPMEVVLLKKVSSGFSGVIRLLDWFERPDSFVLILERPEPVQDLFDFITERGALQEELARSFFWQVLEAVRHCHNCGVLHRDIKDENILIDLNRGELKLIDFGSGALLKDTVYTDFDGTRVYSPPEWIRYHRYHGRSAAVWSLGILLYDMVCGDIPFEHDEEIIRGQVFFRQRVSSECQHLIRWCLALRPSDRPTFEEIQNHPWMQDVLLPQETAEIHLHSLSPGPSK
smiles,measurement,setting,value
CNC(=O)c1cc(Oc2ccc(NC(=O)Nc3ccc(Cl)c(C(F)(F)F)c3)cc2)ccn1,per cent of control,ADCK3 (human),90%
same,per cent of control,ALK (human),100%
same,per cent of control,CAMK2D (human),89%
same,per cent of control,CDK18 (human),57%
same,per cent of control,CHEK1 (human),49%
same,per cent of control,CLK3 (human),84%
same,per cent of control,CSNK1A1 (human),100%
same,per cent of control,CSNK1G2 (human),100%
same,per cent of control,CSNK2A1 (human),100%
same,per cent of control,DCLK3 (human),100%
same,per cent of control,EPHA3 (human),4%
same,per cent of control,ERN1 (human),92%
same,per cent of control,FGFR2 (human),6.4%
same,per cent of control,FLT1 (human),0.7%
same,per cent of control,[1],12%
same,per cent of control,FLT4 (human),0%
same,per cent of control,FYN (human),35%
same,per cent of control,HIPK4 (human),4.5%
same,per cent of control,IGF1R (human),100%
same,per cent of control,[2],42%
same,per cent of control,[3],0%
same,per cent of control,LATS1 (human),79%
same,per cent of control,LIMK2 (human),53%
same,per cent of control,MAP2K2 (human),88%
same,per cent of control,MAP2K7 (human),92%
same,per cent of control,MAP3K11 (human),74%
same,per cent of control,MAPK12 (human),42%
same,per cent of control,MARK2 (human),67%
same,per cent of control,MTOR (human),100%
same,per cent of control,MYLK4 (human),88%
same,per cent of control,NEK3 (human),100%
same,per cent of control,NEK4 (human),100%
same,per cent of control,PDPK1 (human),94%
same,per cent of control,PIM1 (human),100%
same,per cent of control,PLK3 (human),100%
same,per cent of control,ROCK2 (human),90%
same,per cent of control,RPS6KA6 KD2 (human),16%
same,per cent of control,STK11 (human),98%
same,per cent of control,STK32C (human),72%
same,per cent of control,STK39 (human),76%
same,per cent of control,TEK (human),2.8%
CNC(=O)c1cc(Oc2ccc(NC(=O)Nc3ccc(Cl)c(C(F)(F)F)c3)cc2)cc[n+]1[O-],per cent of control,ADCK3 (human),86%
same,per cent of control,ALK (human),94%
same,per cent of control,CAMK2D (human),87%
same,per cent of control,CDK18 (human),26%
same,per cent of control,CHEK1 (human),79%
same,per cent of control,CLK3 (human),100%
same,per cent of control,CSNK1A1 (human),100%
same,per cent of control,CSNK1G2 (human),100%
same,per cent of control,CSNK2A1 (human),94%
same,per cent of control,DCLK3 (human),100%
same,per cent of control,EPHA3 (human),4%
same,per cent of control,ERN1 (human),66%
same,per cent of control,FGFR2 (human),8.9%
same,per cent of control,FLT1 (human),0.65%
same,per cent of control,[1],9%
same,per cent of control,FLT4 (human),0%
same,per cent of control,FYN (human),41%
same,per cent of control,HIPK4 (human),2.3%
same,per cent of control,IGF1R (human),97%
same,per cent of control,[2],50%
same,per cent of control,[3],0%
same,per cent of control,LATS1 (human),53%
same,per cent of control,LIMK2 (human),59%
same,per cent of control,MAP2K2 (human),84%
same,per cent of control,MAP2K7 (human),63%
same,per cent of control,MAP3K11 (human),89%
same,per cent of control,MAPK12 (human),0.1%
same,per cent of control,MARK2 (human),87%
same,per cent of control,MTOR (human),100%
same,per cent of control,MYLK4 (human),100%
same,per cent of control,NEK3 (human),100%
same,per cent of control,NEK4 (human),93%
same,per cent of control,PDPK1 (human),94%
same,per cent of control,PIM1 (human),100%
same,per cent of control,PLK3 (human),100%
same,per cent of control,ROCK2 (human),82%
same,per cent of control,RPS6KA6 KD2 (human),6.4%
same,per cent of control,STK11 (human),100%
same,per cent of control,STK32C (human),87%
same,per cent of control,STK39 (human),87%
same,per cent of control,TEK (human),3.5%
